Experiments:
Format in all cases: cell-based, human
[1] = test system: Ph-ALL3.1 cells; assay: Release of elutriated S phase cells, FACS and 3H-thymidine incorporation
Experimental: FIG. 5. […] Ph-ALL3.1 cells were subjected to standard centrifugal elutriation conditions and the S phase fraction, as determined by FACS analysis, was released into granaticin A (1 μM) or vehicle control (DMSO) for the indicated times and FACS analysis was performed. […] Apoptosis was confirmed in additional independent experiments. Asynchronous and time zero correspond to an asynchronous cell sample and the elutriated S phase fraction prior to release, respectively.
FIG. 6. Thymidine incorporation in S-phase: ^3H-Thymidine incorporation during the release experiment outlined in the slide above. Cell samples post-release into granaticin A or vehicle control (DMSO) were pulsed for 2 hours with ^3H-thymidine, and samples were collected, washed, and acid precipitable counts were measured by scintillation counting. X-axis is time post-release into compound or control (in hours) and y-axis is counts per minute (CPM).

[2] = test system: HeLa cells; assay: Caspase-3 activity in HeLa cells; conditions: rescued by Bcl-XL overexpression and 10 micromolar Ac-DEVD-CHO
Experimental: FIGS. 12-14. Inhibition of Granaticin A Induced Caspase-3 Activity in HeLa cells. Growth curves in the presence of the indicated micromolar concentrations of granaticin A were performed and caspase-3 activity was measured following addition of a substrate that when cleaved by caspase-3 results in light emission which is quantitated by a fluorimeter (y-axis) as a function of time (x-axis).

[3] = test system: Ph-ALL3.1 cells; assay: Release of elutriated G1 phase cells, 3H-thymidine incorporation and FACS; set-up: dose or concentration left out as unconfirmed; conditions: G1 phase fraction released into granaticin A
Experimental: FIG. 2. Elutriation profile of PhALL3.1: Centrifugal elutriation was used to synchronize the recently established Philadelphia chromosome positive acute lymphoblastic leukemia cell line (PhALL3.1). An asynchronous culture (4 liters) was pelleted, resuspended in a small volume (20 ml), and loaded into the elutriation rotor as outlined by the manufacturer (Beckman). After equilibration and washing, cell samples were eluted from the rotor based on size with the smaller cells exiting the rotor first. Ten fractions (250 ml) were taken across the gradient and standard FACS analysis performed on 10 ml of each fraction looking at DNA content. G1, S, and G2 phase cell populations are indicated in the asynchronous profile. This method allows for isolation of phase specific cell populations.
FIG. 3. […] Ph-ALL3.1 cells were subjected to standard centrifugal elutriation conditions and the G1 phase fraction, as determined by FACS analysis (Time Zero), was released into granaticin A ([…]) or vehicle control (DMSO) for the indicated times. Cell samples post-release into granaticin A or vehicle control (DMSO) were pulsed for 2 hours with ^3H-thymidine and samples were collected, washed, and acid precipitable counts were measured by scintillation counting. X-axis is time post-release into compound or control (in hours) and y-axis is counts per minute (CPM). […]

Question: How did the “cell cycle profile by FACS” value ([1]; S phase fraction released into 1 μM) turn out when `CC1OC2CC(O)C1(O)c1c(O)c3c(c(O)c12)C(=O)C1=C(C3=O)[C@H](C)O[C@H]2CC(=O)O[C@@H]12` (some centres unmarked) [Granaticin A, granaticin A] was run?
Answer: Its value is “cell cycle arrest and apoptosis”.

Question: What about the 3H-thymidine incorporation ([1]; S phase fraction, 2 hours pulses post-release) of the same compound?
Answer: Its 3H-thymidine incorporation is “markedly reduced incorporation”.

Question: What about the caspase-3 activity [2] of the same compound?
Answer: Its caspase-3 activity is “activation of caspase-3 and apoptosis”.

Question: What about the 3H-thymidine incorporation [3] of the same compound?
Answer: The 3H-thymidine incorporation was “stop incorporating ^3H-thymidine”.

Question: And the cell cycle profile [3]?
Answer: Its cell cycle profile is “G1 phase arrest”.

— US20210283099A1, “CDC7 KINASE INHIBITORS AND USES THEREOF” (SLOAN-KETTERING INSTITUTE FOR CANCER RESEARCH, priority 2010, published 2021)
